Patent US20090012148A1, “REDUCING CELLULAR CHOLESTEROL LEVELS AND/OR TREATING OR PREVENTING PHOSPHOLIPIDOSIS” (priority 2005, published 2009)

What was measured:
CT60 cells [1] = assay: Toxicity assay by cell count (Hoechst 33258); type: cell-based, Chinese hamster
Experimental: To measure toxicity, we treated CT60 and CT43 cells with compounds at 5, 10 and 20 μM for 24 h. The cell number per well was compared to control cells treated with DMSO (FIG. 7). […] Compound 1-a-14 did cause a 50% reduction in cell number at 10 μM for CT60 and an 80% reduction for CT43 cells. Compounds 1-a-4, 5, 6, 8 and 13 were partially toxic as indicated by 20-30% reduction in cell number after 24 h at 10 μM. Procedure Using Cell Count Assay: Compounds were added to CT60 and CT43 cells plated in 384 well plates at 0 (DMSO solvent control), 5, 10 and 20 μM concentrations in quadruplicate using methods similar to the dose dependence assay, except that the cells were stained with Hoechst 33258 nuclear stain. The final DMSO concentration in each well was 0.2%. For the control cells an equivalent amount of DMSO was added to the cells. The cells were incubated for 24, 48 and 72 h. After each time period, cells were washed and then fixed with 1.5% PFA. After washing the cells three times with PBS, the nuclei of the cells were stained using 5 μg/ml Hoechst 33258 (25 mg/ml stock solution in DMSO) in PBS for 45 m at room temperature. Finally, cells were washed three times with PBS, and images were obtained using a Nikon 4× Plan Apo 0.2NA objective. For Hoechst imaging we used the same filter set as for filipin. We collected one 520×696 pixel image per well at 12 intensity bits per pixel. Each pixel is 3.125 by 3.125 μm in […] the object. Cells were counted by defining the standard area of single nuclei (˜200 μm^2) interactively for each plate using the Integrated Morphometry Analysis function of MetaMorph. The number of standard areas per object above a threshold was determined, and the total number of standard areas per image was used as the cell count. The percent reduction in the number of cells compared to DMSO control was calculated for each concentration and time.

CT60 cells [2] = assay: Filipin binding assay, average filipin intensity and staining pattern; type: cell-based, Chinese hamster; conditions: for Average Filipin Assay @ 10 μM dose Fraction of Control: compounds from secondary library
Experimental: We developed assays for correction of the NPC phenotype in CHO cell lines using filipin, which binds to non-esterified cholesterol and has been used to visualize the free cholesterol content in NPC cells. The initial screens were carried out in CT60 cells, which express a mutated hamster NPC1 protein and a gain of function mutation in SCAP (42). These cells cannot traffic LDL-derived cholesterol out of late endosomes, and large amounts of cholesterol accumulate in LSO compartments. FIGS. 1A-B show images of filipin staining in a control CHO cell line, TRVb1 (45) (FIG. 1A) and in CT60 cells (FIG. 1B). It can be seen that the CT60 cells show much more filipin staining than control cells and that the fluorescence in CT60 cells is concentrated in peri-nuclear organelles.
For screening, images were acquired using a Discovery-1 automated microscopy system with a 10× objective and corrected for background and shading as described in Methods. Two thresholds were set for filipin staining, a low threshold to include all cell areas, and a high threshold for the strong filipin staining in the peri-nuclear LSOs. The threshold values were set for each plate from analysis of 64 images in 32 wells of untreated CT60 cells. […] In developing the low threshold, we compared the outlines based on the thresholded cell images with transmitted light images, and the thresholds provided good agreement with the transmitted light cell boundaries.
As a simple measure of the intensity of filipin staining, we measured the filipin intensity per pixel above the threshold. The conditions of filipin labeling (time and concentration) were adjusted to optimize the discrimination between the CT60 cells and control TRVb1 cells. […] The quality of the assay for screening is expressed in terms of a statistical parameter Z′(46):
Using the above screening technique, we screened a library of 14,956 compounds added to cells for 16 hours at a final concentration of 10 μM, using a single well for each compound. Prior to application of the compounds, cells were grown in normal tissue culture medium containing 10% FBS, so the LSOs were filled with cholesterol (FIG. 1B). The cells were then imaged and analyzed using the average filipin intensity assay and the LSO compartment assay. In general, the two analyses identified similar compounds that reduced the filipin labeling.
Compound addition: The library compounds were formatted for screening in the Rockefeller University High Throughput Screening Facility. Cells were treated with the compounds from the chemical library one day after plating. We added […] of each compound (5 mM stock in DMSO) to 25 μl of screening Medium S composed of medium A supplemented with 1% FBS and 20 mM 4-(2-hydroxyethyl)-1-pipiperazine ethane sulphonic acid (HEPES) in Falcon 384-well V-bottomed polypropylene plates using a Packard MiniTrak™ robotic liquid handling system. To obtain ˜10 μM final concentration, 23 μl of the premixed compounds were dispensed into the plates containing cells and […] of culture medium A. For primary screening, 352 test compounds were added to each plate, and the remaining 32 wells were used as a control with only DMSO added. All plates were incubated with compounds for 16 h at 37° C. Plates were then washed three times with phosphate buffered saline pH 7.4 (PBS) using a Bio-Tek Elx405 plate washer (Bio-Tek Instruments Inc., Winooski, Vt.). For each wash cycle, […] of PBS was dispensed followed by aspiration with a residual volume of 16 μl per well. Finally, cells were fixed with 1.5% PFA in PBS for 20 min at room temperature, followed by 3 more washes with PBS.
Fluorescence labeling. To the fixed cells, filipin was added at a final concentration of 50 μg/ml in PBS for 45 m at room temperature to label free cholesterol. Cells were finally washed three times with PBS, and images were acquired immediately after labeling. […]

SMILES | reduction in cell number (CT60 cells [1]; 10 μM, 24 h) [%] | Average filipin intensity Fraction of control (CT60 cells [2]; 10 μM, 14 hit compounds from primary library) | Cell Count After 24 h @ 10 μM dose Fraction of Control (CT60 cells [1]; 10 μM) | Average Filipin Assay @ 10 μM dose Fraction of Control (CT60 cells [2]) | reduction in the number of cells (CT60 cells [1]; 20 μM, 24 h) [%]
CCOc1cccc2cc(-c3csc(Nc4cccc(C(F)(F)F)c4)n3)c(=O)oc12 [Compound 1-a-14] | 50 | 1.24 ± 0.04 Fraction of control | – | – | –
CCN(CC)c1ccc(C=C2SC(=S)N(c3ccc(OC)cc3)C2=O)cc1 [Compound 2-a-3] | – | – | 1.00 Fraction of Control | 0.75 ± 0.01 Fraction of Control | –
COc1ccccc1Nc1nc(Nc2ccccc2OC)nc(Nc2ccccc2OC)n1 [Compound 2-a-9] | – | – | 0.90 Fraction of Control | 0.74 ± 0.01 Fraction of Control | –
FC(F)(F)COc1nc(NN=Cc2cccc(I)c2)nc(N(c2ccccc2)c2ccccc2)n1 [Compound 2-a-12] | – | – | 0.67 Fraction of Control | 0.87 ± 0.01 Fraction of Control | 75
O=[N+]([O-])c1cccc(C=NNc2nc(Nc3cccc4ccccc34)nc(N(c3ccccc3)c3ccccc3)n2)c1 [Compound 2-a-13] | – | – | 1.00 Fraction of Control | 0.75 ± 0.02 Fraction of Control | –
C=CCN1C(=O)C(=Cc2cc(C)n(-c3ccccc3)c2C)C(C(=O)OC)=C1C [Compound 2-a-15] | – | – | 0.94 Fraction of Control | 0.79 ± 0.01 Fraction of Control | –
